# Source: article PMC6681416, “Novel Derivatives of Deoxycholic Acid Bearing Linear Aliphatic Diamine and Aminoalcohol Moieties and their Cyclic Analogs at the C3 Position: Synthesis and Evaluation of Their In Vitro Antitumor Potential” (Molecules, 2019)
# Read-outs that look alike come from different tables or passages of the source.
# Tests used:
# [1] = test system: HuTu-80 cells; assay: cells; assay type: cell-based; conditions: ratio IC50 hFF3 / IC50 HuTu-80
# Text: (§1) According to our previous data and data published by other research groups, chemical transformations of bile acids can greatly improve their antitumor potential. Thus, as the first step of evaluation of the biological activities of our novel DCA derivatives we assessed their effects on tumor cell viability. The cytotoxicity of the compounds was investigated with respect to a panel of cultured cell lines, including human duodenal HuTu-80, hepatocellular HepG2, cervical KB-3-1 and lung A549 carcinomas as well as murine macrophage RAW264.7 and non-transformed human fibroblasts hFF3 by MTT assay.
# (§2) Human duodenal carcinoma HuTu-80 cells, human hepatocellular carcinoma HepG2 cells, human cervical carcinoma KB-3-1 cells, human lung carcinoma A549 cells were obtained from the Russian Cell Culture Collection (Institute of Cytology, RAS, St. Petersburg, Russia). Non-transformed human fibroblasts hFF3 were kindly provided by Dr. Olga Koval (Institute of Chemical Biology and Fundamental Medicine, SB RAS, Novosibirsk, Russia). RAW264.7 macrophages were kindly provided by Prof. Dr. Dmitry Kuprash (Engelhardt Institute of Molecular Biology, RAS, Moscow, Russia). The cells were cultured in DMEM (Sigma-Aldrich Inc., St. Louis, MO, USA) supplemented with 10% (v/v) heat-inactivated fetal bovine serum (FBS) (BioloT, St. Petersburg, Russia), 100 U/mL penicillin (ICN Biomedicals Inc., Costa Mesa, CA, USA), 100 µg/mL streptomycin and 0.25 µg/mL amphotericin; additionally, in the case of RAW264.7 cells, concentration of glucose in the medium was increased up to 4.5 mg/mL. The cells were incubated at 37 °C in 5% CO2 and 95% air (hereafter referred to as standard conditions). DCA derivatives were dissolved in DMSO to yield stock solutions of 10 mmol/L and stored at −20 °C prior to use.
# (§3) Cells were seeded in triplicate in 96-well plates at a density of 5 × 10^3 (HuTu-80, HepG2, KB-3-1, hFF3), 10^4 (A549) or 5 × 10^4 (RAW264.7) cells per well. Cells were incubated under standard conditions for 24 h and then they were treated with varying doses of investigated derivatives for subsequent 24 h. Then 10 µL of MTT solution (5 mg/mL) were added to each wells and cells were incubated for an additional 2 h under standard conditions. The crystals of formazan forming within live cells were solubilized with DMSO and the absorbance was measured in a Multiscan RC plate reader (Thermo LabSystems, Helsinki, Finland) at a test and reference wavelengths of 570 nm and 620 nm, respectively. […] To perform SAR analysis, hierarchical clustering of compounds based on their IC50 values was fulfilled with Euclidean distance by using the Morpheus tool (https://software.broadinstitute.org/morpheus/), a platform designed for visualization and analysis of data in a matrix format. Heatmap, containing compounds’ SI values, were constructed by using the Excel 2010 software (Microsoft, Redmond, WA, USA). In order to reveal whether ROS participate in the induction of cell death by compound 9, HuTu-80 cells cultured in 96-well plate were pretreated by NAC at 2 mM for 1 h. Thereafter, the medium was replaced by fresh medium with compound 9 at 8 µM and the cells were incubated with subsequent 24 h under standard conditions. After this time period, the curves of cytotoxicity of compound 9 in the presence or absence of NAC were compared.
# [2] = test system: HepG2 cells; assay: MTT cytotoxicity assay, HepG2; assay type: cell-based, human; conditions: ratio IC50 hFF3 / IC50 HepG2
# Text: as §1, §2, §3
# [3] = test system: KB-3-1 cells; assay: MTT cytotoxicity assay, KB-3-1; assay type: cell-based, human; conditions: ratio IC50 hFF3 / IC50 KB-3-1
# Text: as §1, §2, §3
# [4] = test system: A549 cells; assay: MTT cytotoxicity assay, A549; assay type: cell-based, human; conditions: ratio IC50 hFF3 / IC50 A549
# Text: as §1, §2, §3
# [5] = test system: RAW264.7 macrophages; assay: MTT cytotoxicity assay, RAW264.7; assay type: cell-based, murine; conditions: for IC50: Mus musculus, RAW264.7, MTT, 24 h, read-out: IC50 RAW264.7 (macrophage); for Selectivity index RAW264: ratio IC50 hFF3 / IC50 RAW264.7
# Text: as §1, §2, §3
# [6] = test system: NO synthesis by IFNγ-activated RAW264.7 cells; assay: Inhibition of NO production by stimulated macrophages (Griess); assay type: cell-based, murine; conditions: Mus musculus, read-out: IC50NO
# Method: RAW264.7 cells were seeded in triplicate in 96-well plates at a density of 5 × 10^4 cells/well and incubated under standard conditions for 24 h. The cells were treated with 20 ng/mL of murine recombinant IFNγ (GIBCO, Gaithersburg, MD, USA), with or without (control) compounds at various concentrations for 24 h. The level of NO production was evaluated by determining the nitrite concentration in culture medium with a Griess Reagent System (Promega, Madison, WI, USA). The IC50^NO value was calculated as the derivative concentration required to decrease NO production to 50% of the non-treated control.
# [7] = test system: HuTu-80 cells; set-up: method as in PMID 28688958, PMID 26037611, PMID 28887170; conditions: MTT, 24 h; values marked by asterisk; ref [21],[22],[23]; read-out: IC50 HuTu-80 (duodenum); cited from earlier work
# [8] = test system: HepG2 cells; set-up: method as in PMID 28688958, PMID 26037611, PMID 28887170; conditions: MTT, 24 h; values marked by asterisk; ref [21],[22],[23]; read-out: IC50 HepG2 (liver); cited from earlier work
# [9] = test system: KB-3-1 cells; set-up: method as in PMID 28688958, PMID 26037611, PMID 28887170; conditions: MTT, 24 h; values marked by asterisk; ref [21],[22],[23]; read-out: IC50 KB3-1 (cervix); cited from earlier work
# [10] = test system: A549 cells; set-up: method as in PMID 28688958, PMID 26037611, PMID 28887170; conditions: MTT, 24 h; values marked by asterisk; ref [21],[22],[23]; read-out: IC50 A549 (lung); cited from earlier work
# [11] = test system: non-transformed human fibroblasts hFF3; set-up: method as in PMID 28688958, PMID 26037611, PMID 28887170; conditions: MTT, 24 h; values marked by asterisk; ref [21],[22],[23]; read-out: IC50 hFF3 (fibroblast); cited from earlier work
# [12] = test system: panel of cultured cell lines (HuTu-80, HepG2, KB-3-1, A549, RAW264.7, hFF3); set-up: method as in PMID 28688958, PMID 26037611, PMID 28887170; conditions: MTT, 24 h; summary of Table 1 values marked by asterisk; ref [21],[22],[23]; read-out: IC50, range or lowest value over tested cell lines; cited from earlier work
smiles,measurement,setting,value
CCN(CC)CCNC[C@]1(O)CC[C@]2(C)C3CC(=O)[C@@]4(C)C(CC[C@@H]4[C@H](C)CCC(=O)OC)[C@@H]3CC[C@@H]2C1 (stereo partly drawn) [Compound 5],Selectivity index HuTu-80,[1],2.2
same,Selectivity index HepG-2,[2],1.7
same,Selectivity index KB-3-1,[3],0.3
same,Selectivity index A549,[4],0.3
same,IC50,[5],20.9 ± 2.1 µM
same,Selectivity index RAW264,[5],0.4
same,IC50,"[6]; RAW264.7, 24 h",> 10 µM
same,IC50,[7],3.3 ± 0.1 µM
same,IC50,[8],4.3 ± 0.3 µM
same,IC50,[9],21.6 ± 3.4 µM
same,IC50,[10],25.5 ± 0.8 µM
same,IC50,[11],7.4 ± 1 µM
same,IC50,[12],3.3 to 25.5 µM
CCN1CCN(C[C@]2(O)CC[C@]3(C)C4CC(=O)[C@@]5(C)C(CC[C@@H]5[C@H](C)CCC(=O)OC)[C@@H]4CC[C@@H]3C2)CC1 (stereo partly drawn) [Compound 7],Selectivity index HuTu-80,[1],2
same,Selectivity index HepG-2,[2],4.6
same,Selectivity index KB-3-1,[3],0.6
same,Selectivity index A549,[4],0.7
same,IC50,[5],37.8 ± 1.7 µM
same,Selectivity index RAW264,[5],0.5
same,IC50,"[6]; RAW264.7, 24 h",> 10 µM
same,IC50,[7],8.3 ± 1.2 µM
same,IC50,[8],3.8 ± 0.3 µM
same,IC50,[9],28.6 ± 0.5 µM
same,IC50,[10],23.5 ± 3 µM
same,IC50,[11],17.4 ± 1.6 µM
"COC(=O)CC[C@@H](C)[C@H]1CC[C@H]2[C@@H]3CC[C@@H]4C[C@H](O)CC[C@]4(C)[C@H]3CC(=O)[C@]12C [Compound 11, methyl 3α-hydroxy-12-oxo-5β-cholan-24-oate]",Selectivity index HepG-2,[2],>3.9
same,Selectivity index A549,[4],1
same,IC50,[5],> 100 µM
same,IC50,"[6]; RAW264.7, 24 h",50.9 ± 5.9 µM
same,IC50,[7],> 100 µM
same,IC50,[8],25.7 ± 3.6 µM
same,IC50,[9],> 100 µM
same,IC50,[11],> 100 µM
same,IC50,[12],≥ 25.7 µM
"C[C@H](CCC(=O)O)[C@H]1CC[C@H]2[C@@H]3CC[C@@H]4C[C@H](O)CC[C@]4(C)[C@H]3C[C@H](O)[C@]12C [DCA, deoxycholic acid]",Selectivity index A549,[4],1
same,IC50,[5],> 100 µM
same,IC50,"[6]; 50% reduction in NO synthesis by IFNγ-activated RAW264.7 cells, 24 h",83.6 ± 1.6 µM
same,IC50,[7],82.9 ± 1.9 µM
same,IC50,[8],> 100 µM
same,IC50,[9],> 100 µM
same,IC50,[11],> 100 µM
same,IC50,[12],≥ 82.9 µM
